Calls of active or inactive are those of the source. No cut-off for these calls is given here.
How the values were obtained:
[1] = test system: Staphylococcus epidermidis; assay: Antibacterial activity against penicillin-resistant Staphylococcus epidermidis assessed as inhibition of bacterial growth measured after 20 hrs by two-fold microdilution assay; assay type: functional
Bacillus subtilis [2] = assay: Antibacterial activity against penicillin-susceptible Bacillus subtilis ATCC 9372 assessed as inhibition of bacterial growth measured after 20 hrs by two-fold microdilution assay; assay type: functional
Streptococcus pyogenes [3] = assay: Antibacterial activity against erythromycin-resistant Streptococcus pyogenes assessed as inhibition of bacterial growth measured after 20 hrs by two-fold microdilution assay; assay type: functional
[4] = Hemolytic activity against mouse RBC at 1 to 16 ug/ml measured after 1 hr by hemolysis assay relative to Triton X-100; assay type: ADME, cell-based, Erythrocyte; settings: mouse red blood cells (erythrocytes), at 1 to 16 µg/mL, dose 1-16 µg/ml, read-out: Activity
[5] = molecular target: T1, Cell division protein FtsZ (Bacillus subtilis (strain 168)) (UniProt P17865); assay: Inhibition of Bacillus subtilis FtsZ assessed as promotion of FtsZ polymerization measured after […] by fluorescence spectrometer based light scattering assay; settings: dose 2.5-10 µg/ml
T1 sequence (whole entry): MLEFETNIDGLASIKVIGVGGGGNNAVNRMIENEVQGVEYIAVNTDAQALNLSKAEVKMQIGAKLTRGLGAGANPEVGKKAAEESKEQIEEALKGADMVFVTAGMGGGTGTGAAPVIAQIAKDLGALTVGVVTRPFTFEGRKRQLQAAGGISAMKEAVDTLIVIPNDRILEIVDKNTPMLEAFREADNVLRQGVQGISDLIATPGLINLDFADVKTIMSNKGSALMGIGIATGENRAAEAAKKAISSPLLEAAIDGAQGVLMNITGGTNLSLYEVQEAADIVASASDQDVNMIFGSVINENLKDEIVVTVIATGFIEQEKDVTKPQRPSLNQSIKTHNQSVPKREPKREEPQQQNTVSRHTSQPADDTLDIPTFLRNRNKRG

Bacillus subtilis [6] = assay: Bactericidal activity against penicillin-susceptible Bacillus subtilis ATCC 9372 assessed as inhibition of bacterial growth measured after 20 hrs by two-fold microdilution assay; assay type: functional
Staphylococcus aureus [7] = assay: Antibacterial activity against Staphylococcus aureus ATCC 25923 assessed as decrease of bacterial growth measured up to 24 hrs by Time kill assay; assay type: functional, organism-based; settings: dose 4-32 µg/ml, time hrs <=24
Streptococcus pyogenes [8] = assay: Antibacterial activity against erythromycin-susceptible Streptococcus pyogenes assessed as inhibition of bacterial growth measured after 20 hrs by two-fold microdilution assay; assay type: functional
Staphylococcus aureus [9] = assay: Antibacterial activity against Staphylococcus aureus ATCC 25923 assessed as fold change in MIC value measured after 14 passages by Multi passage resistance assay; assay type: functional, organism-based
Staphylococcus aureus [10] = assay: Antibacterial activity against Staphylococcus aureus ATCC 25923 assessed as fold increase in MIC value measured after 1 passage by Multi passage resistance assay; assay type: functional
Staphylococcus aureus [11] = assay: Antibacterial activity against methicillin-resistant Staphylococcus aureus ATCC43300 assessed as inhibition of bacterial growth measured after 20 hrs by two-fold microdilution assay; assay type: functional
Bacillus pumilus [12] = assay: Bactericidal activity against penicillin-susceptible Bacillus pumilus CMCC63202 assessed as inhibition of bacterial growth measured after 20 hrs by two-fold microdilution assay; assay type: functional
Escherichia coli = assay: Antibacterial activity against penicillin-susceptible Escherichia coli ATCC 25922 assessed as inhibition of bacterial growth measured after 20 hrs by two-fold microdilution assay; assay type: functional
Pseudomonas aeruginosa [13] = assay: Antibacterial activity against penicillin-susceptible Pseudomonas aeruginosa ATCC 27853 assessed as inhibition of bacterial growth measured after 20 hrs by two-fold microdilution assay; assay type: functional
Staphylococcus aureus [14] = assay: Antibacterial activity against clinical isolate Staphylococcus aureus C1 assessed as inhibition of bacterial growth measured after 20 hrs by two-fold microdilution assay; assay type: functional
Pseudomonas aeruginosa [15] = assay: Anti-biofilm activity against Pseudomonas aeruginosa ATCC 27853 assessed as inhibition of biofilm formation at 4 to 64 ug/ml measured after 20 hrs by crystal violet staining based biofilm formation inhibition assay; assay type: functional, organism-based; settings: dose 4-64 µg/ml
Staphylococcus aureus [16] = assay: Ratio of MBC to MIC against erythromycin-susceptible Staphylococcus aureus ATCC 25923; assay type: functional
Staphylococcus aureus [17] = assay: Bactericidal activity against methicillin-resistant Staphylococcus aureus ATCC43300 assessed as inhibition of bacterial growth measured after 20 hrs by two-fold microdilution assay; assay type: functional
Staphylococcus aureus [18] = assay: Bactericidal activity against erythromycin-susceptible Staphylococcus aureus ATCC 25923 assessed as inhibition of bacterial growth measured after 20 hrs by two-fold microdilution assay; assay type: functional
Bacillus pumilus [19] = assay: Antibacterial activity against penicillin-susceptible Bacillus pumilus CMCC63202 assessed as inhibition of bacterial growth measured after 20 hrs by two-fold microdilution assay; assay type: functional
Staphylococcus aureus [20] = assay: Ratio of MBC to MIC against penicillin-resistant Staphylococcus aureus ATCC 31007; assay type: functional
Staphylococcus aureus [21] = assay: Antibacterial activity against penicillin-resistant Staphylococcus aureus ATCC 31007 assessed as inhibition of bacterial growth measured after 20 hrs by two-fold microdilution assay; assay type: functional
Bacillus subtilis [22] = assay: Ratio of MBC to MIC against penicillin-susceptible Bacillus subtilis ATCC 9372; assay type: functional
Bacillus pumilus [23] = assay: Inhibition of Bacillus pumilus CMCC63202 FtsZ assessed as aggregation of FtsZ at 10 ug/ml pre-incubated for 30 mins followed by addition of GTP and measured after 30 mins measured after by Transmission electron microscopic method; settings: dose 10.0 µg/ml
Enterococcus faecalis [24] = assay: Antibacterial activity against Vancomycin-resistant Enterococcus faecalis ATCC 51299 assessed as inhibition of bacterial growth measured after 20 hrs by two-fold microdilution assay; assay type: functional
Enterococcus faecalis [25] = assay: Antibacterial activity against Vancomycin-susceptible Enterococcus faecalis ATCC 29212 assessed as inhibition of bacterial growth measured after 20 hrs by two-fold microdilution assay; assay type: functional
Staphylococcus aureus [26] = assay: Bactericidal activity against penicillin-resistant Staphylococcus aureus ATCC 31007 assessed as inhibition of bacterial growth measured after 20 hrs by two-fold microdilution assay; assay type: functional
Bacillus pumilus [27] = assay: Inhibition of Bacillus pumilus CMCC63202 FtsZ assessed as change in morphology by measuring increase of cell length at 16 ug/ml measured after 20 hrs by optical microscopy; settings: dose 16.0 µg/ml
Enterococcus faecium [28] = assay: Antibacterial activity against Vancomycin-susceptible Enterococcus faecium ATCC 19434 assessed as inhibition of bacterial growth measured after 20 hrs by two-fold microdilution assay; assay type: functional
Staphylococcus aureus [29] = assay: Antibacterial activity against Staphylococcus aureus ATCC 25923 assessed as reduction of colony forming units at 4 to 64 ug/ml measured up to 24 hrs by Time kill assay; assay type: functional, organism-based; settings: dose 4-64 µg/ml, time hrs <=24
Staphylococcus aureus [30] = assay: Antibacterial activity against erythromycin-susceptible Staphylococcus aureus ATCC 25923 assessed as inhibition of bacterial growth measured after 20 hrs by two-fold microdilution assay; assay type: functional
Staphylococcus aureus [31] = assay: Antibacterial activity against Staphylococcus aureus ATCC 25923 infected in Kunming mouse assessed as decrease in viable bacterial in eye blood at 5 mg/kg, ip measured after 1 hr; assay type: functional, organism-based
Staphylococcus aureus [32] = assay: Antibacterial activity against Staphylococcus aureus ATCC 25923 infected in Kunming mouse assessed as decrease in viable bacterial in eye blood at 25 mg/kg, ip measured after 1 hr; assay type: functional, organism-based
Enterococcus faecium [33] = assay: Antibacterial activity against Vancomycin-resistant Enterococcus faecium ATCC 51559 assessed as inhibition of bacterial growth measured after 20 hrs by two-fold microdilution assay; assay type: functional
Bacillus pumilus [34] = assay: Ratio of MBC to MIC against penicillin-susceptible Bacillus pumilus CMCC63202; assay type: functional
Staphylococcus aureus [35] = assay: Ratio of MBC to MIC against methicilline-resistant Staphylococcus aureus ATCC43300; assay type: functional
Enterococcus faecalis [36] = assay: Bactericidal activity against Vancomycin-susceptible Enterococcus faecalis ATCC 29212 assessed as inhibition of bacterial growth measured after 20 hrs by two-fold microdilution assay; assay type: functional
Enterococcus faecium [37] = assay: Bactericidal activity against Vancomycin-resistant Enterococcus faecium ATCC 51559 assessed as inhibition of bacterial growth measured after 20 hrs by two-fold microdilution assay; assay type: functional
Enterococcus faecalis [38] = assay: Ratio of MBC to MIC against Vancomycin-susceptible Enterococcus faecalis ATCC 29212; assay type: functional
Enterococcus faecium [39] = assay: Bactericidal activity against Vancomycin-susceptible Enterococcus faecium ATCC 19434 assessed as inhibition of bacterial growth measured after 20 hrs by two-fold microdilution assay; assay type: functional
Enterococcus faecalis [40] = assay: Ratio of MBC to MIC against Vancomycin-resistant Enterococcus faecalis ATCC 51299; assay type: functional
Enterococcus faecium [41] = assay: Ratio of MBC to MIC against Vancomycin-susceptible Enterococcus faecium ATCC 19434; assay type: functional
Enterococcus faecalis [42] = assay: Bactericidal activity against Vancomycin-resistant Enterococcus faecalis ATCC 51299 assessed as inhibition of bacterial growth measured after 20 hrs by two-fold microdilution assay; assay type: functional

Row | SMILES | MIC [1] [µg/mL] | MIC (Bacillus subtilis [2]) [µg/mL] | MIC (Streptococcus pyogenes [3]) [µg/mL] | MBC (Bacillus subtilis [6]) [µg/mL] | MIC (Streptococcus pyogenes [8]) [µg/mL] | MIC (Staphylococcus aureus [11]) [µg/mL] | MBC (Bacillus pumilus [12]) [µg/mL] | MIC (Escherichia coli) [µg/mL] | MIC (Pseudomonas aeruginosa [13]) [µg/mL] | MIC (Staphylococcus aureus [14]) [µg/mL] | Ratio (Staphylococcus aureus [16]) | MBC (Staphylococcus aureus [17]) [µg/mL] | MBC (Staphylococcus aureus [18]) [µg/mL] | MIC (Bacillus pumilus [19]) [µg/mL] | MIC (Staphylococcus aureus [21]) [µg/mL] | Ratio (Bacillus subtilis [22]) | MIC (Enterococcus faecalis [24]) [µg/mL] | MIC (Enterococcus faecalis [25]) [µg/mL] | MBC (Staphylococcus aureus [26]) [µg/mL] | MIC (Enterococcus faecium [28]) [µg/mL] | further results
1 | Cc1cccc2c[n+](C)c3ccc(-c4ccc5ccn(Cc6ccccc6)c5c4)cc3c12.[Cl-] | 8 | 4 | 8 | 16 | 8 | 2 | > 64 | > 64 | > 64 | 2 | 32 | 64 | 32 | 4 | 4 | 4 | 16 | 8 | 64 | 8 | hemolysis at 1 h [4]: < 8%; inhibition [5]: Active; Activity (Staphylococcus aureus [7]): Dose-Dependent Effect; Activity (Staphylococcus aureus [9]): Active; fold change (FC) (Staphylococcus aureus [10]): 2; Activity (Pseudomonas aeruginosa [15]): inactive; Ratio (Staphylococcus aureus [20]): 16; inhibition (Bacillus pumilus [23]): Active; inhibition (Bacillus pumilus [27]): Active; Activity (Staphylococcus aureus [29]): Active; MIC (Staphylococcus aureus [30]): 1 µg/mL; Activity (Staphylococcus aureus [31]): Active; Activity (Staphylococcus aureus [32]): Active; MIC (Enterococcus faecium [33]): 8 µg/mL
2 | Cc1ccc2c[n+](C)c3ccc(-c4ccc5ccn(Cc6ccccc6)c5c4)cc3c2c1.[Cl-] | 8 | 2 | 4 | 4 | 4 | 4 | 64 | > 64 | > 64 | 2 | 16 | 16 | 32 | 4 | 4 | 2 | 16 | 8 | 64 | 4 | Ratio (Bacillus pumilus [34]): 16; Ratio (Staphylococcus aureus [35]): 4; MIC (Staphylococcus aureus [30]): 2 µg/mL; MIC (Enterococcus faecium [33]): 4 µg/mL
3 | Cc1ccc2c[n+](C)c3ccc(-c4ccc5ccn(Cc6ccc(C(F)(F)F)cc6)c5c4)cc3c2c1.[Cl-] | 2 | 8 | 8 | > 8 | 8 | 4 | 16 | > 64 | > 64 | 2 | 2 | 8 | 4 | 2 | 8 | 1 | 4 | 4 | 16 | 2 | MBC (Enterococcus faecalis [36]): 16 µg/mL; MBC (Enterococcus faecium [37]): 32 µg/mL; Ratio (Enterococcus faecalis [38]): 4; MBC (Enterococcus faecium [39]): 16 µg/mL; Ratio (Enterococcus faecalis [40]): 8; Ratio (Bacillus pumilus [34]): 8; Ratio (Staphylococcus aureus [20]): 4; Ratio (Enterococcus faecium [41]): 8; MIC (Staphylococcus aureus [30]): 2 µg/mL; MBC (Enterococcus faecalis [42]): 32 µg/mL; MIC (Enterococcus faecium [33]): 4 µg/mL
